# From patent publication US5585355A, “Method for increasing blood-ocular barrier permeability with permeabilizer peptides” (Alkermes, Inc., priority 1994, dated 1996)
# Several values for one entry are separate records, joined by “and”; a condition that tells them apart may be missing. Identical values can stand only once. Like-named read-outs stand apart in the source and are kept apart here.
# What was measured:
# [1] = tested on: blood-ocular barrier; details: for Uptake of [14C]-sucrose, % of plasma concentration (W/W) / KIN, unidirectional transport rate of [14C]-sucrose: A-7 1 μg/kg; for KIN, unidirectional transport rate of [14C]-sucrose: 3.0 min to 4.5 min
# Experimental: Adult Hartley guinea pigs of either sex (250-300 g) were used.
# Animals were anaesthetized with 6 mg/kg xylazine (Rompun®, Mobay Corp., Shawnee, Kans.) and 30 mg/kg ketamine (Vetacet®, Abeco Co., Inc., Fort Dodge, Iowa) before surgically exposing the neck vessels. […] The technique is briefly summarized here. A fine polyethylene catheter connected to the extracorporeal perfusion system by silicon tubings was inserted into the right common carotid artery. Immediately after the start of the perfusion, the contralateral carotid artery was ligated and both jugular veins cut to allow free drainage of the perfusate.
# All tubing was low gas permeable silicon, and all metal was medical grade stainless steel. The temperature and perfusion pressure were continuously recorded, and the acid-base status frequently monitored. Perfusion pressure was kept slightly above the animal's blood pressure to eliminate any possible ingress from the systemic circulation.
# (§1) Isotopically labeled [^14 C]-sucrose was introduced into the perfusion circuit after the 5 minute infusion at a rate of 0.4 to 0.6 μCi/ml/min, over periods ranging from 1.5 min to 4.5 min. In all experiments, the perfusion was terminated by severing the right common carotid artery and decapitating the animal.
# (§2) The eyes were enucleated and the lenses rapidly excised via a lateral approach 1.5 mm posteriorly to the limbus. The lenses were blotted on filter paper to remove any adhering aqueous humor and to avoid epithelial contamination by aqueous radioactivity. Corneas were dissected circumferentially about 0.5 mm anteriorly to the limbus. After removal of the anterior segment of the eye, the vitreous body was dissected from the retinal surface. Retinas were scooped from the lying epithelium. All tissues were blotted after dissection to minimize contamination by adjacent tissue layers and/or fluids. Samples of plasma, aqueous humor, lens, cornea, retina and posterior vitreous were treated with 2 ml Beckman Tissue Solubilizer (BTS)-450, and 16 ml of scintillant (Beckman Ready Organic, Fullerton, Calif.). Radioactivity was determined in a Beckman LS-7500 liquid scintillation spectrometer.
# (When data are expressed as percentages the ratios were multiplied by 100.) The following equations were used to calculate ratios:
# Caqueous or Cvitreous /Cplasma =(DPM/ml aqueous or vitreous)/(DPM/ml plasma)
# Clens or Ccornea or Cretina /Cplasma =(DPM/g lens or cornea or retina)/(DPM/ml plasma)
# Multiple-time uptake series were performed, and the unidirectional transport rate constant, KIN, and initial volume of tracer distribution, VI, were calculated using the following equations where T is the perfusion time:
# KIN (plasma-aqueous or vitreous)=[Caqueous or vitreous /Cplasma ]T+VI (aqueous or vitreous/plasma)
# KIN (plasma-lens, cornea or retina)=[Clens, cornea or retina /Cplasma ]T+VI (lens cornea or retina/plasma)
# The respective KIN and VI values were graphically estimated by linear regression analysis as a slope and ordinate intercept of the line corresponding to the best linear fit to experimental data points for the time period when there was no significant departure from linearity in studied compartments.
# Results are presented as means±SE.
# [2] = tested on: blood-ocular barrier; assay: Uptake of [3H]-ganciclovir into retina and lens following intravenous administration of A-7; type: in vivo, guinea pig; details: for Uptake of [3H]-ganciclovir, % of plasma concentration (W/W): five minute intravenous administration of A-7
# Experimental: The methodology of these experiments is similar to that of Example 1 except for the following modifications. In this case, [^3 H]-ganciclovir (22 Ci mmol^-1, Moravek Brea, Calif.) was injected into the right jugular vein instead of the common carotid artery. […] The lenses and retinas were removed as described in Example 1.
# [3] = tested on: blood-ocular barrier; assay: Uptake of [3H]-ganciclovir into the eye after arterial infusion of A-7 (VEP); type: in vivo, guinea pig; details: for KIN of [3H]-ganciclovir: 0 min to 3.0 min; for KIN for ganciclovir, times higher in the presence of A-7: 0 to 3.0 min
# Experimental: Animals were anaesthetized with 6 mg/kg xylazine (Rompun®, Mobay Corp., Shawnee, Kans.) and 30 mg/kg ketamine (Vetacet®, Abeco Co., Inc., Fort Dodge, Iowa) before surgically exposing the neck vessels. The vascular eye perfusion (VEP) technique used here and previously described by Zlokovic et al. (1992, Exp. Eye Res., 54:471) allows for the study of uptake of agents in to the eye while protecting the eye from systemic metabolic changes. The technique is briefly summarized here. A fine polyethylene catheter connected to the extracorporeal perfusion system by silicon tubings was inserted into the right common carotid artery. Immediately after the start of the perfusion, the contralateral carotid artery was ligated and both jugular veins cut to allow free drainage of the perfusate.
# The perfusion medium consisted of 20% washed sheep red blood cells (RBC) suspended in mock plasma of the following composition (in mM): 123 NaCl, 4 KCl, 2.5 CaCl2.H2 O, 25 NaHCO3, 1.2 KH2 PO4, 1.8 MgCl2.6H2 O and 5.5 D-glucose. The perfusion medium was gassed with 96% O2 and 4% CO2 and warmed to 37.6° C., and was pumped from a reservoir through a water bath using a Rainin Rabbit peristaltic pump (Rainin Instruments, Woburn, Mass.). All tubing was low gas permeable silicon, and all metal was medical grade stainless steel. The temperature and perfusion pressure were continuously recorded, and the acid-base status frequently monitored. Perfusion pressure was kept slightly above the animal's blood pressure to eliminate any possible ingress from the systemic circulation.
# as §1
# as §2, with “As large a sample as possible (30-40 μl) of the aqueous humor was removed with a 0.5 cc U-100 insulin syringe using 28 G 1/2 microfine IV needle (no dead-space), immediately after the perfusion was terminated. The eyes” for “The eyes”
# The methodology of these experiments is similar to that of Example 1 described above. […] The ocular compartments were dissected as described above and analyzed for uptake of [^3 H]-ganciclovir.
# [4] = Effect of A-7 on physiological functions; type: in vivo, guinea pig; details: for Blood Pressure / Body Weight / Heart Rate / Respirations/Minute: within first minute of infusion
substance,measurement,setting,value
Arginine-Proline-Hydroxyproline-Glycine-Thienylalanine-Serine-Proline-4-Me-Tyrosine-(CH2 NH)Arginine [A-7],"Uptake of [14C]-sucrose, % of plasma concentration (W/W)","[1]; aqueous, 1.5 min after sucrose added",0.19 ± 0.01 % of Plasma Concentration (W/W
same,"Uptake of [14C]-sucrose, % of plasma concentration (W/W)","[1]; aqueous, 3.0 min after sucrose added",0.41 ± 0.18 % of Plasma Concentration (W/W
same,"KIN, unidirectional transport rate of [14C]-sucrose",[1]; aqueous,9.13 ± 3.66 µL/min/g
same,"Uptake of [14C]-sucrose, % of plasma concentration (W/W)","[1]; aqueous, 4.5 min after sucrose added",1.79 ± 0.68 % of Plasma Concentration (W/W
same,"Uptake of [14C]-sucrose, % of plasma concentration (W/W)","[1]; cornea, 1.5 min after sucrose added",0.48 ± 0.19 % of Plasma Concentration (W/W
same,"Uptake of [14C]-sucrose, % of plasma concentration (W/W)","[1]; cornea, 3.0 min after sucrose added",1.01 ± 0.23 % of Plasma Concentration (W/W
same,"KIN, unidirectional transport rate of [14C]-sucrose",[1]; cornea,16.20 ± 3.42 µL/min/g
same,"Uptake of [14C]-sucrose, % of plasma concentration (W/W)","[1]; cornea, 4.5 min after sucrose added, an outlier of 0.5% not included",3.44 ± 1.40 % of Plasma Concentration (W/W
same,"KIN for sucrose, times higher in the presence of A-7",[1]; lens,6.5 times
same,"Uptake of [14C]-sucrose, % of plasma concentration (W/W)","[1]; lens, 1.5 min after sucrose added",0.03 ± 0.02 % of Plasma Concentration (W/W
same,"Uptake of [14C]-sucrose, % of plasma concentration (W/W)","[1]; lens, 3.0 min after sucrose added",0.05 ± 0.01 % of Plasma Concentration (W/W
same,"KIN, unidirectional transport rate of [14C]-sucrose",[1]; lens,0.130 ± 0.015 µL/min/g
same,"Uptake of [14C]-sucrose, % of plasma concentration (W/W)","[1]; lens, 4.5 min after sucrose added",0.07 ± 0.01 % of Plasma Concentration (W/W
same,"KIN for sucrose, times higher in the presence of A-7",[1]; retina,6.7 times
same,"Uptake of [14C]-sucrose, % of plasma concentration (W/W)","[1]; retina, 1.5 min after sucrose added, 5 min arterial infusion",0.95 ± 0.30 % of Plasma Concentration (W/W
same,"Uptake of [14C]-sucrose, % of plasma concentration (W/W)","[1]; retina, 3.0 min after sucrose added, 5 min arterial infusion",1.76 ± 0.50 % of Plasma Concentration (W/W
same,"KIN, unidirectional transport rate of [14C]-sucrose",[1]; retina,4.27 ± 0.9 µL/min/g
same,"Uptake of [14C]-sucrose, % of plasma concentration (W/W)","[1]; retina, 4.5 min after sucrose added, 5 min arterial infusion",2.26 ± 0.56 % of Plasma Concentration (W/W
same,"Uptake of [14C]-sucrose, % of plasma concentration (W/W)","[1]; vitreous, 1.5 min after sucrose added",0.03 ± 0.018 % of Plasma Concentration (W/W
same,"Uptake of [14C]-sucrose, % of plasma concentration (W/W)","[1]; vitreous, 3.0 min after sucrose added",0.05 ± 0.01 % of Plasma Concentration (W/W
same,"KIN, unidirectional transport rate of [14C]-sucrose",[1]; vitreous,0.84 µL/min/g and 0.84 ± 0.25 µL/min/g
same,"Uptake of [14C]-sucrose, % of plasma concentration (W/W)","[1]; vitreous, 4.5 min after sucrose added",0.18 ± 0.05 % of Plasma Concentration (W/W
same,Effect on sucrose uptake by vitreous,"[1]; vitreous, time points earlier than 4.5 minutes of VEP",did not affect
same,"Uptake of [3H]-ganciclovir, % of plasma concentration (W/W)","[2]; lens, 1.5 min",5.46 ± 1.08 % of Plasma Concentration (W/W
same,"Uptake of [3H]-ganciclovir, % of plasma concentration (W/W)","[2]; lens, 4.5 min",10.01 ± 1.37 % of Plasma Concentration (W/W
same,"Uptake of [3H]-ganciclovir, % of plasma concentration (W/W)","[2]; retina, 1.5 min",3.94 ± 0.36 % of Plasma Concentration (W/W
same,"Uptake of [3H]-ganciclovir, % of plasma concentration (W/W)","[2]; retina, 4.5 min",8.45 ± 1.00 % of Plasma Concentration (W/W
same,Increase of retinal uptake of [3H]-ganciclovir above vehicle treated controls,"[2]; retina, intravenous A-7, p=0.001",more than 2 fold
same,"Uptake of [3H]-ganciclovir, % of plasma concentration (W/W)","[3]; aqueous, 1.5 min, arterial infusion of A-7",0.46 ± 0.1 % of Plasma Concentration (W/W
same,"Uptake of [3H]-ganciclovir, % of plasma concentration (W/W)","[3]; aqueous, 3.0 min, arterial infusion of A-7",0.51 ± 0.21 % of Plasma Concentration (W/W
same,"Uptake of [3H]-ganciclovir, % of plasma concentration (W/W)","[3]; aqueous, 4.5 min, arterial infusion of A-7",0.55 ± 1.0 % of Plasma Concentration (W/W
same,Ganciclovir uptake into other compartments,"[3]; compartments other than retina and lens, within the measured time periods",did not substantially increase
same,KIN of [3H]-ganciclovir,[3]; cornea,1.21 µL/min/g
same,"Uptake of [3H]-ganciclovir, % of plasma concentration (W/W)","[3]; cornea, 1.5 min, arterial infusion of A-7",1.16 ± 0.53 % of Plasma Concentration (W/W
same,"Uptake of [3H]-ganciclovir, % of plasma concentration (W/W)","[3]; cornea, 3.0 min, arterial infusion of A-7",2.98 ± 0.33 % of Plasma Concentration (W/W
same,"Uptake of [3H]-ganciclovir, % of plasma concentration (W/W)","[3]; cornea, 4.5 min, arterial infusion of A-7",2.92 ± 0.46 % of Plasma Concentration (W/W
same,KIN of [3H]-ganciclovir,[3]; lens,40.3 ± 5.6 µL/min/g
same,"KIN for ganciclovir, times higher in the presence of A-7",[3]; lens,1.3 times
same,"Uptake of [3H]-ganciclovir, % of plasma concentration (W/W)","[3]; lens, 1.5 min, arterial infusion of A-7",7.89 ± 0.52 % of Plasma Concentration (W/W
same,"Uptake of [3H]-ganciclovir, % of plasma concentration (W/W)","[3]; lens, 3.0 min, arterial infusion of A-7",11.86 ± 1.42 % of Plasma Concentration (W/W
same,"Uptake of [3H]-ganciclovir, % of plasma concentration (W/W)","[3]; lens, 4.5 min, arterial infusion of A-7",13.37 ± 1.06 % of Plasma Concentration (W/W
same,Increase in uptake of ganciclovir into the lens,"[3]; lens, from 1.5 to 4.5 minutes of VEP",1.5-2 fold
same,KIN of [3H]-ganciclovir,[3]; retina,21.2 ± 1.5 µL/min/g
same,"KIN for ganciclovir, times higher in the presence of A-7",[3]; retina,2.6 times
same,"Uptake of [3H]-ganciclovir, % of plasma concentration (W/W)","[3]; retina, 1.5 min, after 5 min arterial infusion of A-7",3.96 ± 0.68 % of Plasma Concentration (W/W
same,"Uptake of [3H]-ganciclovir, % of plasma concentration (W/W)","[3]; retina, 3.0 min, after 5 min arterial infusion of A-7",6.56 ± 0.79 % of Plasma Concentration (W/W
same,"Uptake of [3H]-ganciclovir, % of plasma concentration (W/W)","[3]; retina, 4.5 min, after 5 min arterial infusion of A-7",7.42 ± 1.14 % of Plasma Concentration (W/W
same,Increase of retinal uptake of ganciclovir compared to vehicle control,"[3]; retina, from 1.5 to 4.5 minutes of VEP",two-fold
same,KIN of [3H]-ganciclovir,[3]; vitreous,0.47 µL/min/g
same,"Uptake of [3H]-ganciclovir, % of plasma concentration (W/W)","[3]; vitreous, 1.5 min, arterial infusion of A-7",0.02 ± 0.00 % of Plasma Concentration (W/W
same,"Uptake of [3H]-ganciclovir, % of plasma concentration (W/W)","[3]; vitreous, 3.0 min, arterial infusion of A-7",0.04 ± 0.03 % of Plasma Concentration (W/W
same,"Uptake of [3H]-ganciclovir, % of plasma concentration (W/W)","[3]; vitreous, 4.5 min, arterial infusion of A-7",0.11 ± 0.04 % of Plasma Concentration (W/W
same,"Changes in body weight, respiration rate, blood pressure and heart rate",[4]; A-7 1 μg/kg,no significant changes
same,Blood Pressure,[4]; A-7 1 μg/kg body weight,75 mm Hg
same,Body Weight,[4]; A-7 1 μg/kg body weight,283 g
same,Heart Rate,[4]; A-7 1 μg/kg body weight,170 Beats Per Minute
same,Respirations/Minute,[4]; A-7 1 μg/kg body weight,26
same,Blood Pressure,[4]; A-7 3 μg/kg body weight,90 mm Hg
same,Body Weight,[4]; A-7 3 μg/kg body weight,283 g
same,Heart Rate,[4]; A-7 3 μg/kg body weight,200 Beats Per Minute
same,Respirations/Minute,[4]; A-7 3 μg/kg body weight,44
same,Blood Pressure,[4]; A-7 10 μg/kg body weight,100 mm Hg
same,Body Weight,[4]; A-7 10 μg/kg body weight,285 g
same,Heart Rate,[4]; A-7 10 μg/kg body weight,Unmeasur-
same,Respirations/Minute,[4]; A-7 10 μg/kg body weight,58
